Series [1] can be described thus: Weight gain and epididymal fat of DIO-C57Bl/6 mice, 4-hydroxyisoleucine and Exendin-4 alone or in combination (Example 5). It counts as in vivo, C57BI/6 mice. The conditions noted are these: s.c., 21 days. As to the method:
(§1) Glycemic response was monitored by an Oral Glucose Tolerance Test (OGTT) performed on days 0, 7, 14, and 21 of treatment.
(§2) A total of 56 animals were used in the study. The animals were distributed into 7 groups (5 treated, 1 normal diet control, and 1 high fat diet control group). Each group was composed of 8 animals. […] For the three weeks of treatment, the test agents were dissolved in sterile saline for injection (USP). 4-Hydroxyisoleucine was kept at 4° C. (administration to groups 3, 4, and 7) while a frozen aliquot of Exendin-4 was thawed each dosing day for administration to groups 5, 6, and 7. Control animals received sterile saline, twice daily (groups 1 and 2). […] Animals from groups 5 and 6 received sterile saline as the AM treatment, while the PM treatment consisted of 0.05 and 0.01 mg/kg of Exendin-4, respectively. For Group 7, the AM treatment consisted of 50 mg/kg 4-OH only, while the PM treatment consisted of 0.01 mg/kg of Exendin-4+50 mg/kg of 4-OH. All groups were treated by subcutaneous injection.

Series [2] in a line: Body weight of DIO mice, 4-hydroxyisoleucine and metformin alone and in combination (Example 6). It counts as in vivo, C57BU6 mice. As to the method: C57BU6 mice were received at 7-8 weeks of age and fed a high fat diet (60% of calories from fat) for 8 weeks. Fasted glycemia was checked and animals with readings between 200 and 220 mg/dL were included in the study. The animals were randomized based on their body weights and glycemia values into control and treatment groups (n=8). […] The control group received vehicle (water) alone. The animals were treated for 21 days. Body weight of the mice was measured on the first day of treatment and on days 3, 7, 10, 14, 17, and 21. All data are expressed as mean±SEM.

Series [3] can be described thus: Body weight of DIO mice, 4-hydroxyisoleucine and Rimonabant alone and in combination (Example 7). It counts as in vivo, C57BU6 mice. The note with it: oral. Here is the method: C57BU6 mice were received at 7-8 weeks of age and fed a high fat diet (60% of calories from fat) for 8 weeks. Seven days prior to treatment, animals were randomized based on their body weight and fasted glycemia values into control and treated groups (n=8). The animals were treated by oral gavage twice daily with 4-OH (50 mg/kg of body weight; group 2), once daily in the afternoon with Rimonabant (0.1 mg/kg; group 3), and a combination of the two treatments (4-OH 50 mg/kg twice daily +Rimonabant 0.1 mg/kg once daily; group 4). The control group (group 1) received vehicle alone twice daily. After 3 weeks of treatment (day 22), the doses were increased as follows: 4-OH 100 mg/kg twice daily (group 2), Rimonabant 1 mg/kg once daily (group 3), and the combination (4-OH 100 mg/kg twice daily+Rimonabant 1 mg/kg once daily; group 4). The animals were treated for 1 week with these higher doses. Body weight of the mice was recorded every day for all groups from Day 6 to Day 28.

Series [4] can be described thus: Prevention of weight gain in Wistar rats fed a high fat, high sucrose diet (Example 10). It counts as in vivo. The note with it: Wistar rats on HFHS diet, 100 mg/kg twice daily oral. The source says:
The aim of this study was to evaluate the effect of chronic administration of 4-hydroxyisoleucine (4-OH, Compound 14a) on food consumption, tissue weight, and body weight gain of normal Wistar rats fed a high fat, high sucrose diet (HFHS).
The animals were acclimated for 1 week and fed standard chow prior to the commencement of treatment, then for the 28 days of the treatment the animals were fed a high fat, high sucrose diet (HFHS). A total of 30 animals were used in the study. The animals were distributed into 3 groups each composed of 10 animals: 1 group fed HFHS with treatment, 1 untreated control group fed standard chow, and 1 untreated group fed HFHS. Animals were housed separately and food consumption was monitored daily.
For the four weeks of treatment, the test compounds were dissolved in reverse osmosis water. 4-hydroxyisoleucine (4-OH) was aliquoted and kept at 4° C. Treated animals received twice daily oral administration of 4-OH at 100 mg/kg per dose. Control animals received water twice daily.

Series [5] can be described thus: Oral Glucose Tolerance Test (OGTT) in DIO mice, 4-hydroxyisoleucine and Exendin-4 alone or in combination (Example 5). The note with it: single agent, 4-OH 50 mg/kg or Exendin-4 0.01 mg/kg, after 7, 14 and 21 days of treatment. It counts as in vivo, C57BI/6 mice. Here is the method:
as §1, §2
On days 0, 7, 14, and 21, animals fasted for approximately 5 hours were challenged with an Oral Glucose Tolerance Test (OGTT) at 5 hours post-AM test agent administration. Whole blood glucose levels were monitored using a hand-held glucometer prior to OGTT and for up to 2 hours post-glucose challenge.

Series [6] is classed as in vivo. The conditions noted are these: ob/ob mice. The text has this:
The objective of this study was to evaluate the effect of chronic administration of 4-hydroxyisoleucine (4-OH, compound 14a) on food consumption and body weight gain in a genetic model of obesity, the ob/ob mouse. Body weight gain and food consumption were monitored for 1 week prior to the commencement of treatment, and then for the 56 days of treatment.
A total of 16 animals were used in the study. The animals were distributed into 2 groups (1 treated, 1 control group, all on standard chow). Each group was composed of 8 animals. The mice were randomized according to body weight values.
For the eight weeks of treatment, the test agent was dissolved in reverse osmosis water. 4-hydroxyisoleucine was aliquoted and kept at 4° C. Control animals received reverse osmosis water twice daily (group 1). Mice from group 2 were treated twice daily with 4-OH at 100 mg/kg. All groups were treated by oral gavage. Treatment commenced on Day 0 and ended on Day 56 (FIGS. 16A and 16B). Food consumption was measured daily and averaged on a weekly basis beginning one week before the start of treatment as shown in FIG. 16B.

Like-named read-outs stand apart in the source and are kept apart here.

As for `C[C@@H]([C@H](C)O)[C@H](N)C(=O)O` [compound 14a, (2S,3R,4S)-4-Hydroxyisoleucine], the body weight gain result in series [1] (4-OH 50 mg/kg twice daily, Exendin-4 0.01 mg/kg (PM), alone or in combination) was “decrease in body weight gain”. In addition, in series [1] (4-OH 100 mg/kg, Exendin-4 0.01 mg/kg, combination 4-OH 50 mg/kg + Exendin-4 0.01 mg/kg), the “weight of epididymal fat” value is on record as “reduction of the weight of epididymal fat”. Further, in series [2] (DIO mice, 100 mg/kg twice daily oral, 21 days, only 4-OH significant (p<0.01 4-OH, p=0.27 metformin)), the “body weight as compared to vehicle-treated mice” value was “reduction of their body weight”. Besides, the “body weight compared to control DIO mice, given alone” value in series [2] (DIO mice, 4-OH 50 mg/kg or metformin 25 mg/kg twice daily oral, 21 days) is recorded as “no significant effect on body weight”. Further, the “efficacy in reducing body weight relative to metformin” value in series [2] (DIO mouse model, conclusion of the study) is “as effective as mefformin”. For the same compound, the “body weight gain after 21 days (low dosage treatment)” value in series [3] (4-OH 50 mg/kg twice daily, Rimonabant 0.1 mg/kg once daily, alone or in combination) is on record as “slight reduction of body weight gain”. Besides, the “body weight after dose increase (day 22 to 28)” value in series [3] (4-OH 100 mg/kg twice daily, Rimonabant 1 mg/kg once daily, alone or in combination (combination compared to each compound separately)) was “immediately reduced the body weight”. In series [4] (28 days), the “epididymal and peri-renal adipose tissue” value was “reduction of epididymal and peri-renal adipose tissue”; the tolerability of treatment result is on record as “well tolerated”; the weight gain entry was “Moderation of weight gain”. Moreover, the “muscle, brown fat, and organ weight” value in series [4] (28 days (data not shown)) is “not affected”. Also, the food consumption entry in series [4] (28 days, could not account for the differences in weight gain) is “reduction in food consumption”. For the same compound, the “glycemic levels following OGTT challenge” value in series [5] was “consistently effective at reducing glycemic levels”. Moreover, the “weight gain during the course of treatment” value in series [6] (100 mg/kg twice daily oral) was “moderation of weight gain”. Further, the “weight gain as compared to the control group” value in series [6] (100 mg/kg twice daily oral, Day 21 to Day 56) is given as “significantly reduced”. Also, the tolerability of treatment result in series [6] (100 mg/kg twice daily, oral gavage, 56 days) is “well tolerated”. Moreover, the food consumption result in series [6] (first three weeks of treatment but not later on) is given as “slight decrease in food consumption”.

These data come from patent publication US20060223884A1, “Compounds and compositions for use in the prevention and treatment of obesity and related syndromes” (priority 2005, published 2006).
